Read-outs that look alike come from different tables or passages of the source.
Experiments:
AeNobo-F39L = AeNobo-F39L (Aedes aegypti, UniProt A0A1S4FIB3, F90L); test: GST activity inhibition assay with 3,4-DNADCF, AeNobo-F39L; type: biochemical
Method: (§1) pCold III plasmids expressing the AeNobo-E113A and AeNobo-F39L were constructed using KOD-Plus-Mutagenesis Kit (Toyobo). The following primers were used: E113A-F (5′-[…]-3′) and E113A-R (5′-[…]-3′) for AeNobo-E113A and F39L-F (5′-[…]-3′) and F39L-R (5′-[…]-3′) for AeNobo-F39L. We conducted inverse PCR using KOD-plus polymerase, pColdIII/AeNobo-WT plasmid, and the primer pair described above under the following conditions: pre-denaturation at 94 °C for 2 min, denaturation at 98 °C for 10 s, and extension at 68 °C for 6 min for 6 cycles. The PCR products were treated with DpnI at 37 °C for 1 h, followed by self-ligation using T4 polynucleotide kinase and Ligation High. After the transformation of DH5α bacteria using the ligation products, we extracted plasmid DNA from the colonies and verified their sequences to confirm whether the appropriate point mutations were introduced.
The IC50 value was measured using an in vitro assay system as described previously. A dilution series of compounds, ranging from 2.5 mM to 0.127 μM for DMG and from 2.5 mM to 4.9 μM for other compounds, was prepared by 2-fold serial dilution in DMSO. […] The fluorescence intensity derived from 4-GS-3-NADCF, a product of this reaction, was measured for 3 min. […]

AeNobo-WT = AeNobo-WT (Aedes aegypti, UniProt A0A1S4FIB3); test: GST activity inhibition assay with 3,4-DNADCF, wild-type AeNobo; type: biochemical
Method: We prepared a purified AeNobo recombinant protein (220-aa length) using an Escherichia coli protein expression system. The GST enzymatic activity was examined using the fluorogenic artificial substrate 3,4-dinitrobenzamidedichlorofluorescein (3,4-DNADCF).
The IC50 value was measured using an in vitro assay system as described previously. […] Five microliters of each diluted compound solution was mixed with 245 μL of solution A (100 mM sodium phosphate buffer at pH 6.5, 0.01% Tween 20, 2 mM GSH, and 50 ng/mL AeNobo-WT, 100 ng/mL AeNobo-E113A, and 200 ng/mL F39L). One hundred microliters of the mixture was dispensed into wells of a 96-well plate. One hundred microliters of solution B (0.2 μM 3,4-DNADCF and 100 mM sodium phosphate buffer at pH 6.5) was added to each well. In summary, the final reaction system comprised 100 mM sodium phosphate buffer (pH 6.5), 1 mM GSH, 0.005% Tween 20, 0.1 μM 3,4-DNACDF, and 25 ng/mL AeNobo, 50 ng/mL AeNobo-E113A, or 100 ng/mL AeNobo-F39L protein. The fluorescence intensity derived from 4-GS-3-NADCF, a product of this reaction, was measured for 3 min. IC50 values were estimated as described previously. The enzymatic assays under each condition were performed at least twice independently.
To identify inhibitors of AeNobo enzymatic activity, a high-throughput screening was performed as described in a previous study. Briefly, a core library of 9600 compounds obtained from the Drug Discovery Initiative, The University of Tokyo, was utilized for screening. In this screen, the enzymatic activity of AeNobo was detected using 3,4-DNADCF [29]. […] Then, 1 μL of solution B (4 μM 3,4-DNADCF, 100 mM sodium phosphate at pH 6.5, and 0.005% Tween 20) was added into each well. In summary, the reaction system comprised 5.6 ng/mL AeNobo protein, 2 μM 3,4-DNADCF, 1 mM GSH, 0.005% Tween 20, and 100 mM sodium phosphate at pH 6.5, together with each compound at 10 μM. The plate was incubated for 30 min at 25–27 °C and 2 μL of 10 mM N-ethylmaleimide was added into each well to stop the reaction. […] For the second screen, we assayed the IC50 values of the compounds against the enzymatic activity of AeNobo.

[1] = system: D. melanogaster 1st instar larvae; test: Drosophila melanogaster survival assay; type: in vivo; conditions: 10 ppm in food
Method: We also conducted larvicidal assays using D. melanogaster. When we placed D. melanogaster 1st instar larvae in food containing 10 ppm DMG, pupariation rate and pupation timing were not affected when compared with a control group (Additional file 1: Figure S10). […] A […] DMG stock solution was prepared in 100% DMSO. Ten microliters of the DMG stock solution or 10 μL of DMSO alone was mixed with 10 g of standard cornmeal medium and 1 mL of autoclaved water. The volume of the mixed food was approximately 10 mL, and therefore, the food contained 0.1% DMSO with or without 10 ppm DMG. Two grams of the food were dispensed into each 12-mL plastic vial (Sarstedt). D. melanogaster wild-type Canton-S were given the opportunity to lay eggs on a grape juice agar with yeast paste for 12 h. After egg collection, the embryos were reared at 25 °C for 24 h, and then 20 1st instar larvae were transferred to each vial and reared at 25°C. The numbers of pupae were counted daily, and the timing of pupation was recorded.

estrogen receptors (ERs) = conditions: does not promote ER binding activity to estrogen response elements; cited from earlier work
[2] = system: Ae. aegypti 1st instar larvae; test: Aedes aegypti larvicidal assay; type: in vivo; conditions: above 10 ppm, 24-h treatment
Method: To test this, we conducted larvicidal assays using Ae. aegypti larvae.
The dried eggs on filter papers were soaked in distilled water. Three hours after soaking, the first instar larvae were transferred to 30 mL of fresh distilled water in a 50-mL plastic cup with a lid containing air holes. In the rearing water, 2 mg of the powdered goldfish food (Hikari Medium Grain, Kyorin Co., Ltd.) was added to each cup as food for Ae. aegypti larvae. In each cup, we poured the 30 mL rearing water containing 1 ppm, 10 ppm, or 100 ppm of the compounds with 0.1% ethanol at the final concentration, followed by placing 20 larvae. Twenty-four hours after the addition of flavonoids, the number of living and dead larvae was recorded. Larvacidal assays under each condition were performed 5 times independently. The larval instars 24 h after the addition of DMG were identified by measuring the transverse diameter of the Ae. aegypti larval head. Photographs of whole bodies of larvae were taken and the head diameter was then measured using ImageJ software.

AeNobo-E113A = AeNobo-E113A (Aedes aegypti, UniProt A0A1S4FIB3, E164K); test: GST activity inhibition assay with 3,4-DNADCF, AeNobo-E113A; type: biochemical; conditions: at a concentration of 25 μM
From the text: The importance of the Glu-113–flavonoid hydrogen bond for flavonoid binding was biochemically examined with a recombinant mutated AeNobo protein carrying an E113A aa substitution (AeNobo-E113A).
as §1
The IC50 value was measured using an in vitro assay system as described previously. A dilution series of compounds, ranging from 2.5 mM to 0.127 μM for DMG and from 2.5 mM to 4.9 μM for other compounds, was prepared by 2-fold serial dilution in DMSO. Five microliters of each diluted compound solution was mixed with 245 μL of solution A (100 mM sodium phosphate buffer at pH 6.5, 0.01% Tween 20, 2 mM GSH, and 50 ng/mL AeNobo-WT, 100 ng/mL AeNobo-E113A, and 200 ng/mL F39L). One hundred microliters of the mixture was dispensed into wells of a 96-well plate. One hundred microliters of solution B (0.2 μM 3,4-DNADCF and 100 mM sodium phosphate buffer at pH 6.5) was added to each well. In summary, the final reaction system comprised 100 mM sodium phosphate buffer (pH 6.5), 1 mM GSH, 0.005% Tween 20, 0.1 μM 3,4-DNACDF, and 25 ng/mL AeNobo, 50 ng/mL AeNobo-E113A, or 100 ng/mL AeNobo-F39L protein. The fluorescence intensity derived from 4-GS-3-NADCF, a product of this reaction, was measured for 3 min. IC50 values were estimated as described previously. The enzymatic assays under each condition were performed at least twice independently.

[3] = system: DmNobo Asp-113 substituted with Ala; set-up: method as in PMID 32241910; conditions: cited from earlier work
DmNobo [4] = target: T1, DmNobo (Drosophila melanogaster, UniProt Q7JYX0); conditions: read-out: IC50 against DmNobo; cited from earlier work
T1 construct: made in house; host or cells: E. coli

DmNobo [5] = target: T1, DmNobo; test: GST activity inhibition assay with 3,4-DNADCF, DmNobo; type: biochemical

Sequence of AeNobo-WT (A0A1S4FIB3 entry or part of it): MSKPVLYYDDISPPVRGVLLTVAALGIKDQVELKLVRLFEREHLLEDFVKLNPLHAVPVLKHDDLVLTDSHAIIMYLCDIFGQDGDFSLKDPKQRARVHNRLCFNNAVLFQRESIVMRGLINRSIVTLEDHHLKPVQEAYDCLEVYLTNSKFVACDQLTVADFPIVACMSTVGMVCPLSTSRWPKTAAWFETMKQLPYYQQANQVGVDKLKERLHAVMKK
T1 sequence (Q7JYX0 whole entry): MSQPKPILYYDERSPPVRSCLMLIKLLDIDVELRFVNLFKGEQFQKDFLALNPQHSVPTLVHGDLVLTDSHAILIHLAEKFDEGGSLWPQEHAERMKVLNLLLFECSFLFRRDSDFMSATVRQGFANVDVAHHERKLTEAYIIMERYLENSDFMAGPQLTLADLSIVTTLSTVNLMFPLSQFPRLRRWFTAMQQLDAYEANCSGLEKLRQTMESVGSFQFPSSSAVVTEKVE
Sequence of AeNobo-F39L (A0A1S4FIB3 entry or part of it F90L): as the sequence (A0A1S4FIB3 entry or part of it) above, with F39L counted along it
Sequence of AeNobo-E113A (A0A1S4FIB3 entry or part of it E164K): as the sequence (A0A1S4FIB3 entry or part of it) above, with E113K counted along it

Row | SMILES | IC50 (AeNobo-F39L) [nM] | IC50 (AeNobo-WT; read-out: IC50 (μM) (mean ± s.d.)) [µM] | Development to adults [1] | Pupariation rate and pupation timing compared with control ([1]; 1st instar larvae) | Estrogenic activity (estrogen receptors (ERs)) | Lethality [2] | Inhibition of enzymatic activity of AeNobo-E113A (AeNobo-E113A) | Inhibition of enzymatic activity of DmNobo with Asp-113 substituted with Ala [3] | IC50 (DmNobo [4]) [nM] | IC50 (DmNobo [5]) [nM] | IC50 against AeNobo relative to that against DmNobo (AeNobo-WT; higher against AeNobo) | IC50 (AeNobo-WT; text and figures, 3,4-DNADCF, read-out: IC50 against AeNobo (WT)) [µM]
1 | O=c1c(-c2ccc(O)cc2)coc2cc(O)c(O)cc12 [Desmethylglycitein, 4′,6,7-trihydroxyisoflavone] | 1160 | 0.293 ± 0.012 | most larvae became adults | not affected | does not exhibit estrogenic activity | high lethality | not inhibited | – | – | – | – | –
2 | C[C@]12CC[C@@H]3c4ccc(O)cc4CC[C@H]3[C@@H]1CC[C@@H]2O [17β-estradiol] | – | – | – | – | – | – | – | does not inhibit | 1200 to 2300 | 2330 ± 80 | approximately 10 fold | 21.3

— paper PMC8851771, “Molecular action of larvicidal flavonoids on ecdysteroidogenic glutathione S-transferase Noppera-bo in Aedes aegypti” (BMC Biology, 2022)
